Experiments:
Assay in all cases: relative viability (nuclei count vs DMSO), 5 days (fraction); higher = more cells survive
Dactolisib + Navitoclax = compound: Cn1c(=O)n(-c2ccc(C(C)(C)C#N)cc2)c2c3cc(-c4cnc5ccccc5c4)ccc3ncc21 [Dactolisib] + CC1(C)CCC(c2ccc(Cl)cc2)=C(CN2CCN(c3ccc(C(=O)NS(=O)(=O)c4ccc(N[C@H](CCN5CCOCC5)CSc5ccccc5)c(S(=O)(=O)C(F)(F)F)c4)cc3)CC2)C1 [Navitoclax] (partner 0.5 µM)
Summary of the method: (§1)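 Values are medians from duplicate plates. Each reflects relative viability, defined as the nuclei count of treated wells over that of vehicle wells. Lung cancer cell lines in 1536-well plates were pin-tool dosed one day after seeding with one drug alone or with a fixed anchor-drug dose plus five library-drug doses (not always all listed) in √10 steps, then fixed, stained and imaged at 4× after 5 days.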

Dactolisib + Linsitinib = compound: Cn1c(=O)n(-c2ccc(C(C)(C)C#N)cc2)c2c3cc(-c4cnc5ccccc5c4)ccc3ncc21 [Dactolisib] + C[C@]1(O)C[C@@H](c2nc(-c3ccc4ccc(-c5ccccc5)nc4c3)c3c(N)nccn32)C1 [Linsitinib] (partner 1 µM)
Summary of the method: as §1

AZ505 + Tozasertib = compound: C1CCC(CC1)N(CCNCCC2=C3C(=C(C=C2)O)NC(=O)CO3)C(=O)CCNCCC4=CC(=C(C=C4)Cl)Cl [AZ505] + Cc1cc(Nc2cc(N3CCN(C)CC3)nc(Sc3ccc(NC(=O)C4CC4)cc3)n2)n[nH]1 [Tozasertib] (partner 0.1 µM)
Summary of the method: as §1

Dactolisib + Palbociclib = compound: Cn1c(=O)n(-c2ccc(C(C)(C)C#N)cc2)c2c3cc(-c4cnc5ccccc5c4)ccc3ncc21 [Dactolisib] + CC(=O)c1c(C)c2cnc(Nc3ccc(N4CCNCC4)cn3)nc2n(C2CCCC2)c1=O [Palbociclib] (partner 0.5 µM)
Summary of the method: as §1

| Cell Line | relative viability (Dactolisib + Navitoclax; first compound 0.002 µM) | relative viability (Dactolisib + Navitoclax; first compound 0.006325 µM) | relative viability (Dactolisib + Navitoclax; first compound 0.02 µM) | relative viability (Dactolisib + Navitoclax; first compound 0.06325 µM) | relative viability (Dactolisib + Navitoclax; first compound 0.2 µM) | relative viability (Dactolisib + Linsitinib; first compound 0.002 µM) | relative viability (Dactolisib + Linsitinib; first compound 0.006325 µM) | relative viability (Dactolisib + Linsitinib; first compound 0.02 µM) | relative viability (Dactolisib + Linsitinib; first compound 0.06325 µM) | relative viability (Dactolisib + Linsitinib; first compound 0.2 µM) | relative viability (AZ505 + Tozasertib; first compound 0.08 µM) | relative viability (AZ505 + Tozasertib; first compound 0.253 µM) | relative viability (AZ505 + Tozasertib; first compound 0.8 µM) | relative viability (AZ505 + Tozasertib; first compound 2.53 µM) | relative viability (AZ505 + Tozasertib; first compound 8 µM) | relative viability (Dactolisib + Palbociclib; first compound 0.002 µM) | relative viability (Dactolisib + Palbociclib; first compound 0.006325 µM) | relative viability (Dactolisib + Palbociclib; first compound 0.02 µM) | relative viability (Dactolisib + Palbociclib; first compound 0.06325 µM) | relative viability (Dactolisib + Palbociclib; first compound 0.2 µM) |
| --- | --- | --- | --- | --- | --- | --- | --- | --- | --- | --- | --- | --- | --- | --- | --- | --- | --- | --- | --- | --- |
| NCI-H1975 | 1.14 | 1.01 | 0.689 | 0.55 | 0.362 | 1.01 | 0.847 | 0.551 | 0.32 | 0.256 | 0.649 | 0.733 | 0.731 | 0.638 | 0.741 | 0.551 | 0.561 | 0.536 | 0.182 | 0.129 |
| CAL-12T | 1.38 | 1.17 | 0.681 | 0.264 | 0.25 | 0.911 | 0.72 | 0.753 | 0.291 | 0.334 | 0.298 | 0.426 | 0.308 | 0.303 | 0.302 | 0.526 | 0.396 | 0.256 | 0.172 | 0.133 |
| NCI-H1623 | – | – | – | – | – | – | – | – | – | – | 0.454 | 0.457 | 0.425 | 0.445 | 0.443 | – | – | – | – | – |
| HCC-44 | 1.06 | 0.982 | 1 | 0.266 | 0.3 | 0.707 | 0.741 | 0.431 | 0.315 | 0.265 | 0.887 | 0.992 | 0.922 | 0.88 | 1.04 | 1.04 | 1.02 | 1.01 | 0.99 | 0.919 |
| EKVX | 0.961 | 0.98 | 0.815 | 0.782 | 0.346 | 0.896 | 0.908 | 0.962 | 0.682 | 0.327 | 0.372 | 0.354 | 0.435 | 0.38 | 0.378 | 0.431 | 0.386 | 0.324 | 0.241 | 0.197 |
| NCI-H1651 | 1.13 | 0.865 | 0.755 | 0.317 | 0.276 | 1.03 | 0.743 | 0.714 | 0.321 | 0.293 | 0.65 | 0.784 | 0.633 | 0.725 | 0.606 | 0.532 | 0.487 | 0.463 | 0.348 | 0.231 |
| NCI-H1944 | 1.06 | 0.986 | 0.933 | 0.526 | 0.36 | 1.36 | 1.17 | 1.06 | 0.524 | 0.428 | 0.248 | 0.249 | 0.24 | 0.236 | 0.236 | 0.403 | 0.334 | 0.23 | 0.192 | 0.181 |
| NCI-H1703 | 0.875 | 1.03 | 0.684 | 0.365 | 0.229 | – | 0.637 | 0.891 | 0.417 | 0.468 | – | – | – | – | – | – | – | – | – | – |
| Calu-6 | 0.972 | 0.794 | 0.703 | 0.411 | 0.259 | 0.875 | 0.939 | 0.898 | 0.492 | 0.495 | – | – | – | – | – | – | – | – | – | – |
| EBC-1 | 0.408 | 0.417 | 0.212 | 0.173 | 0.145 | 0.974 | 0.756 | 0.863 | 0.202 | 0.177 | – | – | – | – | – | – | – | – | – | – |
| A-427 | 0.953 | 0.951 | 0.915 | 0.393 | 0.349 | 1.16 | 1.12 | 1.14 | 0.748 | 0.609 | 0.211 | 0.177 | 0.194 | 0.187 | 0.216 | 0.547 | 0.529 | 0.498 | 0.428 | 0.401 |
| NCI-H2347 | 0.928 | 0.746 | 0.729 | 0.308 | 0.271 | 1.29 | 0.47 | 0.893 | 0.68 | 0.385 | 0.492 | – | – | – | 0.54 | 0.505 | 0.448 | 0.401 | 0.402 | 0.358 |
| NCI-H1355 | 0.959 | 0.836 | 0.86 | 0.335 | 0.234 | 0.848 | 0.761 | 0.733 | 0.354 | 0.257 | 0.57 | 0.534 | 0.586 | 0.534 | 0.527 | 0.406 | 0.368 | 0.352 | 0.255 | 0.174 |
| NCI-H358 | – | – | – | – | – | 0.848 | 0.641 | 0.549 | 0.293 | 0.211 | 0.094 | 0.0964 | 0.0966 | 0.108 | 0.104 | 0.141 | 0.146 | 0.134 | 0.112 | 0.096 |
| PC-3 [JPC-3] | 0.796 | 0.787 | 0.879 | 0.742 | 0.509 | 0.996 | 0.984 | 1.03 | 0.816 | 0.639 | 0.83 | 0.919 | 0.87 | 0.848 | 0.867 | 0.596 | 0.544 | 0.59 | 0.511 | 0.418 |
| NCI-H2228 | 0.875 | 0.699 | 0.551 | 0.241 | 0.215 | 0.659 | 0.488 | 0.436 | 0.323 | 0.193 | 0.23 | 0.279 | 0.164 | 0.206 | 0.236 | 0.882 | 0.725 | 0.638 | 0.197 | 0.147 |
| HOP-62 | 1.24 | 1.08 | 1.06 | 0.353 | 0.613 | 1.04 | 0.626 | 0.873 | 0.447 | 0.342 | 0.386 | 0.436 | 0.385 | 0.427 | 0.383 | 0.467 | 0.45 | 0.383 | 0.288 | 0.147 |
| HARA | 1.2 | 1.13 | 1.18 | 1.13 | 0.404 | 1 | 0.884 | 0.842 | 0.573 | 0.211 | 0.165 | 0.102 | 0.0957 | 0.106 | 0.0964 | 0.304 | 0.233 | 0.301 | 0.233 | 0.188 |

Source: the supplement of paper PMC10307832
